Experimental data from patent US20010055590A1, “Method for enhancing myoblast migration and invasion in the context of gene therapy” (priority 1999, published 2001).

Key:
mouse myoblasts = assay: In vitro mouse myoblast invasion assay across Matrigel barrier; assay type: cell-based; settings: 24 hours; for effect on bFGF-stimulated mouse myoblast invasion: 0.05 units/ml plasmin or 50 mM NAC; for increase of mouse myoblast invasion across Matrigel barrier over the control: 25 ng/ml bFGF, 50 μg/ml fibronectin
Experimental: Mouse myoblasts were previously isolated from hind limb muscles of 4-6 week old severe combined immunodeficient (SCID) mice and clonally purified from contaminating fibroblasts (Yao et al. “Primary myoblast-mediated gene: transfer: persistent expression of human factor IX in mice” Gene Therapy 1:99-107, 1994). Myoblasts (approximately 1×10^6 cells) were plated on 6 cm tissue culture plates coated with 0.5% gelatin (Sigma, St. Louis, Mo.) and grown in growth medium consisting of Dulbecco's Modified Eagle Medium (DMEM) (Gibco BRL, Gaithersburg Md.) supplemented with 20% fetal bovine serum (FBS; Gibco) and 0.5% chick embryo extract (CEE; Gibco). All animal studies were carried out following the institutional guidelines for ethical animal use. Human myoblasts were isolated using trypsin digestion from abdominal wall or chest wall muscle biopsies, and surgery. Written consent was obtained from all patients prior to biopsy isolation as approved by the University Hospital's Institutional Regulation Board on the use of human subjects. Cells were preplated on uncoated plates for 1 hour to separate muscle fibroblasts. […] All experiments were done with myoblasts of passage 7 or lower. Myoblast migration and invasion were examined using a commercially available in vitro cell migration and invasion assay kit (Biocoat, Becton Dickinson, Franklin Lakes, N.J.) as described by Albini et al. (A rapid in vitro assay for quantitating the invasive potential of tumor cells Cancer Res 47:3239-3245, 1987). Myoblasts were grown to approximately 70% confluence, rinsed three times in serum-free DMEM, followed by incubation for 3 hours in 0.2% bovine serum albumin (BSA) in DMEM to eliminate the effects of serum. Cells were then trypsinized and collected by centrifugation. Cells were resuspended in serum-free DMEM at a density of 1×10^5 cells/ml, and 0.5 ml aliquots of cell suspension were added to the top chamber. […] Fibronectin subfragments of 45 KDa (Sigma), 120 kDa (Gibco), 63 kDa (Retronectin, Takara) and 70 KDa (Sigma) were used alone or in combination. […] For migration studies, the upper chamber membrane was coated with 0.1% gelatin and cells were allowed to migrate for 8-12 hours, while for invasion studies, the upper membrane was coated with 5 μl of Matrigel® diluted to 5 mg/ml in sterile phosphate buffered saline (PBS) and cells were allowed to invade for 24 hours. The top side of the insert membrane was scrubbed free of cells using a cotton swab and the bottom side was stained using the Leukostat-I system (Fisher Diagnostics, Pittsburgh, Pa.). The number of cells per field was counted in 10 randomly selected fields and averaged for each condition. To evaluate the effects of inactivation or activation of MMPs, aliquots (0.05 units in 50 μl PBS) of purified human plasmin (Sigma) or 50 mM N-acetyl cysteine (NAC; Sigma) were added with the cells to the top chamber of the migration assay and growth factor was added to the bottom. […] Myoblasts (5×10^4 cells/well) were stimulated with various growth factors and fibronectin, and their ability to migrate or invade through a Matrigel® barrier (panel a, mouse myoblast migration at 12 hours; panel b, mouse myoblast invasion at 24 hours). […] Bars represent mean ±SEM from a minimum of 3 separate experiments.

MMP-2 = assay: Gelatin zymography of mouse myoblast culture medium, MMP-2; assay type: cell-based
Experimental: Briefly, myoblasts were grown in 6 cm tissue culture plates to approximately 70% confluence, then rinsed three times with serumfree DMEM and incubated for 3 hours in DMEM containing 0.2% BSA to eliminate the effects of serum. Growth factors were added and cells were incubated for 24 hours. Culture medium was then collected, centrifuged to pellet detached cells, and concentrated ten-to twenty-fold using the Centricon-10 (Amicon, Beverly, Mass.) system. The protein concentration of the supernatants was determined using the Bio-Rad protein microassay system with BSA used as the standard. Samples were stored at −70° C. until use. For gelatin zymography, aliquots (10 μg as the total protein per sample) were electrophoresed at constant voltage on a 10% polyacrylamide gel containing 2 mg/ml gelatin. The gel was rinsed three times for 15 min in 2.5% Triton-X 100 to remove SDS and renature the proteins, then incubated in MMP activation buffer (0.05 M Tris-HCl, pH 7.5 with 5 mM CaCl2) for 24 hours at 37° C. with constant shaking. Gels were stained overnight in 0.5% Coomassie blue R-250, and destained for 1 hour in 40% methanol: 10% acetic acid. Proteinase activity was quantified by densitometric scanning of bands using a Bio-Rad Gel Doc 1000 video camera imaging system (Bio Rad, Hercules, Calif.). […] Values are arbitrary densitometric units, which are normalized to DMEM control for each experiment and shown as values ±SEM representing a minimum of 3 experiments per condition. […] Mouse myoblasts were treated for 24 hours with either DMEM alone, fibronectin (50 μg/ml), or individual fragments (37.5 μg/ml) of 45, 120, 63 (Retronectin), 75 kDa and their combinations, 45 kDa/120 kDa and 120 kDa/63 kDa.

MMP-9 = assay: Gelatin zymography of mouse myoblast culture medium, MMP-9; assay type: cell-based
Experimental: Briefly, myoblasts were grown in 6 cm tissue culture plates to approximately 70% confluence, then rinsed three times with serumfree DMEM and incubated for 3 hours in DMEM containing 0.2% BSA to eliminate the effects of serum. Growth factors were added and cells were incubated for 24 hours. Culture medium was then collected, centrifuged to pellet detached cells, and concentrated ten-to twenty-fold using the Centricon-10 (Amicon, Beverly, Mass.) system. The protein concentration of the supernatants was determined using the Bio-Rad protein microassay system with BSA used as the standard. Samples were stored at −70° C. until use. For gelatin zymography, aliquots (10 μg as the total protein per sample) were electrophoresed at constant voltage on a 10% polyacrylamide gel containing 2 mg/ml gelatin. The gel was rinsed three times for 15 min in 2.5% Triton-X 100 to remove SDS and renature the proteins, then incubated in MMP activation buffer (0.05 M Tris-HCl, pH 7.5 with 5 mM CaCl2) for 24 hours at 37° C. with constant shaking. Gels were stained overnight in 0.5% Coomassie blue R-250, and destained for 1 hour in 40% methanol: 10% acetic acid. Proteinase activity was quantified by densitometric scanning of bands using a Bio-Rad Gel Doc 1000 video camera imaging system (Bio Rad, Hercules, Calif.). […]

[1] = test system: SCID mouse vastus musculature; assay: Myoblast implantation in vivo: incorporation of β-GAL-marked myoblasts into host myofibers; settings: myoblasts stimulated before implantation with 1 μg/ml bFGF, 50 μg/ml fibronectin or both; SCID mice, 3 weeks; 4 animals
Experimental: All animal studies were carried out following the institutional guideline for animal use. For in vivo studies, SCID mouse myoblasts transduced with a BAG retrovirus containing the beta-galactosidase (β-GAL) reporter gene and selected as previously described (Yao and Kurachi “Implanted myoblasts not only fuse with myofibers but also survive as muscle precursor cells” J. Cell Sci 105:957-963, 1993), were grown in growth medium on 15 cm plates. When cells reached 70% confluence they were harvested by trypsinization using standard methods, rinsed twice in phosphate buffered saline (PBS), and resuspended in DMEM containing either bFGF (1 μg/ml), fibronectin (50 μg/ml) or both, at a concentration of 2×10^7 cells/ml. […]
Muscle sections were stained for β-GAL activity using the standard histochemical staining procedure (Rando et al. “The fate of myoblasts following transplant into mature muscle” Exper. Cell Res. 220:383-389, 1995). […] The total number of β-GAL-positive fibers (stained blue) per section was counted for 5 different sections spanning the entire injection site for each animal and averaged. […]
The number of β-GAL positive myofibers were quantified after implantation of BAG-transduced SCID myoblasts treated with DMEM alone (control), 1 μg/ml bFGF, 50 μg/ml fibronectin, or 1 μg/ml bFGF+50 μg/ml fibronectin. […]

[2] = mouse myoblasts treated 24 hours

Molecule	effect on bFGF-stimulated mouse myoblast invasion (mouse myoblasts)	increase of mouse myoblast invasion across Matrigel barrier over the control (mouse myoblasts)	increase in the number of β-GAL-positive myofibers over control [1] [fold]	other results
CC(=O)N[C@@H](CS)C(=O)O [NAC, N-acetyl cysteine, reference compound]	drastically reduced such stimulatory effects to the control levels			
bovine basic fibroblast growth factor [bFGF]		approximately 7 fold	2.3	increase of total MMP-2 expression (MMP-2; mouse myoblasts treated 24 hours, densitometry normalized to DMEM control): 49%; MMP-9 expression (110 kDa band) over the DMEM control level (MMP-9; [2]): ~10 fold
human serum fibronectin		4 fold	2	MMP-2 proteolytic activation (64 and 62 kDa forms) (MMP-2; [2]): substantial proteolytic conversion to the activated and intermediate forms; increased MMP-2 expression (MMP-2; mouse myoblasts, soluble fibronectin 24 hours): approximately 2 fold; effect on MMP-9 expression (MMP-9; mouse myoblasts): does not significantly affect
purified human plasmin (protein, UniProt P00747 20-580; P00747 581-810, looked up, Plasmin) Plasmin heavy chain A: EPLDDYVNTQGASLFSVTKKQLGAGSIEECAAKCEEDEEFTCRAFQYHSKEQQCVIMAENRKSSIIIRMRDVVLFEKKVYLSECKTGNGKNYRGTMSKTKNGITCQKWSSTSPHRPRFSPATHPSEGLEENYCRNPDNDPQGPWCYTTDPEKRYDYCDILECEEECMHCSGENYDGKISKTMSGLECQAWDSQSPHAHGYIPSKFPNKNLKKNYCRNPDRELRPWCFTTDPNKRWELCDIPRCTTPPPSSGPTYQCLKGTGENYRGNVAVTVSGHTCQHWSAQTPHTHNRTPENFPCKNLDENYCRNPDGKRAPWCHTTNSQVRWEYCKIPSCDSSPVSTEQLAPTAPPELTPVVQDCYHGDGQSYRGTSSTTTTGKKCQSWSSMTPHRHQKTPENYPNAGLTMNYCRNPDADKGPWCFTTDPSVRWEYCNLKKCSGTEASVVAPPPVVLLPDVETPSEEDCMFGNGKGYRGKRATTVTGTPCQDWAAQEPHRHSIFTPETNPRAGLEKNYCRNPDGDVGGPWCYTTNPRKLYDYCDVPQCAAPSFDCGKPQVEPKKCPGR Plasmin light chain B: VVGGCVAHPHSWPWQVSLRTRFGMHFCGGTLISPEWVLTAAHCLEKSPRPSSYKVILGAHQEVNLEPHVQEIEVSRLFLEPTRKDIALLKLSSPAVITDKVIPACLPSPNYVVADRTECFITGWGETQGTFGAGLLKEAQLPVIENKVCNRYEFLNGRVQSTELCAGHLAGGTDSCQGDSGGPLVCFEKDKYILQGVTSWGLGCARPNKPGVYVRVSRFVTWIEGVMRNN	further increased the effects of bFGF			effect on invasion stimulated by combination of bFGF and fibronectin (mouse myoblasts; plasmin): lowered the greatly enhanced effects
